These results are taken from patent US7612072B2, “Amorphous form of a phosphoric acid salt of a dipeptidyl peptidase-IV inhibitor” (Merck & Co., Inc., priority 2004, dated 2009).

The nature of this data set: Solubility in water of the amorphous form. It is filed as physicochemical.

Turning to `N[C@@H](CC(=O)N1CCn2c(nnc2C(F)(F)F)C1)Cc1cc(F)c(F)cc1F` [Compound I, (2R)-4-oxo-4-[3-(trifluoromethyl)-5,6-dihydro[1,2,4]triazolo[4,3-α]pyrazin-7(8H)-yl]-1-(2,4,5-trifluorophenyl)butan-2-amine dihydrogenphosphate], the solubility in water result is “high solubility in water”.
